Key:
Carbonic anhydrase 2 = Carbonic anhydrase 2 (Homo sapiens, UniProt P00918); assay: Inhibition of recombinant human carbonic anhydrase 2 after 15 mins by stopped flow CO2 hydration assay
Carbonic anhydrase 9 = Carbonic anhydrase 9 (Homo sapiens, UniProt Q16790); assay: Inhibition of recombinant human carbonic anhydrase 9 after 15 mins by stopped flow CO2 hydration assay
Carbonic anhydrase 1 = Carbonic anhydrase 1 (Homo sapiens, UniProt P00915); assay: Inhibition of recombinant human carbonic anhydrase 1 after 15 mins by stopped flow CO2 hydration assay
Carbonic anhydrase 1, sequence (P00915 whole entry): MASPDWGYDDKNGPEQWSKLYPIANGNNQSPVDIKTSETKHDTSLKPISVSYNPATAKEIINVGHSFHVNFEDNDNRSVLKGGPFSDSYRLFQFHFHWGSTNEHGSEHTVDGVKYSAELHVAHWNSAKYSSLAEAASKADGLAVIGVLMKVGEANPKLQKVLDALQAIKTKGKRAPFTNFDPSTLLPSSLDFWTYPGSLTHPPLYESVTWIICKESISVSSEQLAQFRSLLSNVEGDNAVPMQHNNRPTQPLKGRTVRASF

Carbonic anhydrase 12 = Carbonic anhydrase 12 (Homo sapiens, UniProt O43570); assay: Inhibition of recombinant human carbonic anhydrase 12 after 15 mins by stopped flow CO2 hydration assay
Carbonic anhydrase 12, sequence (O43570 whole entry): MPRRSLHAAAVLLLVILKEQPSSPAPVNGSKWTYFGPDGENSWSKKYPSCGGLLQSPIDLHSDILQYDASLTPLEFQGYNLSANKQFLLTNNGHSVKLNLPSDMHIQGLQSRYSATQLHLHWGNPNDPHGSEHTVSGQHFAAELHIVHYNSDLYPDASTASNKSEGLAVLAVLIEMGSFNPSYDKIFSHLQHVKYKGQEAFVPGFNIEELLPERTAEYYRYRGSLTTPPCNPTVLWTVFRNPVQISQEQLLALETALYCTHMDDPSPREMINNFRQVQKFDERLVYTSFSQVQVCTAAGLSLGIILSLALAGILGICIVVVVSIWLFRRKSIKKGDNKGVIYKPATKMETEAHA

| Structure (SMILES) | Ki (Carbonic anhydrase 2) [nM] | Ki (Carbonic anhydrase 9) [nM] | Ki (Carbonic anhydrase 1) [nM] | Ki (Carbonic anhydrase 12) [nM] |
| --- | --- | --- | --- | --- |
| CCCN(CCC)S(=O)(=O)c1ccc(C(=O)Nc2cccc([N+](=O)[O-])c2)cc1 | > 10000 | 265 | – | – |
| CCCN(CCC)S(=O)(=O)c1ccc(C(=O)Nc2cccc(Cl)c2)cc1 | > 10000 | 198 | – | – |
| CCCN(CCC)S(=O)(=O)c1ccc(C(=O)Nc2ccccc2N)cc1 | > 10000 | 223 | – | – |
| CCCN(CCC)S(=O)(=O)c1ccc(C(=O)Nc2ccccc2[N+](=O)[O-])cc1 | > 10000 | – | – | – |
| CCCN(CCC)S(=O)(=O)c1ccc(C(=O)Nc2ccc(Cl)cc2)cc1 | > 10000 | 243 | – | – |

Continued, values first:

| Ki (Carbonic anhydrase 2) [nM] | Ki (Carbonic anhydrase 9) [nM] | Ki (Carbonic anhydrase 1) [nM] | Ki (Carbonic anhydrase 12) [nM] | Structure (SMILES) |
| --- | --- | --- | --- | --- |
| 431 | 360 | > 10000 | 1240 | CCCN(CCC)S(=O)(=O)c1ccc(C(=O)O)cc1 [PROBENECID] |
| > 10000 | 234 | – | – | CCCN(CCC)S(=O)(=O)c1ccc(C(=O)NC2CCCCC2)cc1 |
| > 10000 | 260 | – | – | CCCN(CCC)S(=O)(=O)c1ccc(C(=O)NC2CCCCC2C)cc1 (configuration not stated) |
| > 10000 | 171 | – | – | CCCN(CCC)S(=O)(=O)c1ccc(C(=O)Nc2ccccc2)cc1 |
| > 10000 | 216 | – | – | CCCN(CCC)S(=O)(=O)c1ccc(C(=O)Nc2nncs2)cc1 |
| > 10000 | 165 | – | – | CCCN(CCC)S(=O)(=O)c1ccc(C(=O)NC)cc1 |
| > 10000 | 251 | – | – | CCCN(CCC)S(=O)(=O)c1ccc(C(=O)NCCN2CCOCC2)cc1 |
| > 10000 | 228 | – | – | CCCN(CCC)S(=O)(=O)c1ccc(C(=O)Nc2ccccn2)cc1 |

— ChEMBL document CHEMBL3352763, “Selective inhibition of human carbonic anhydrases by novel amide derivatives of probenecid: synthesis, biological evaluation and molecular modelling studies” (Bioorg Med Chem, 2014)
